Laboratory results as given in publication PMC9108603, “Microbial Metabolite Inspired β‐Peptide Polymers Displaying Potent and Selective Antifungal Activity” (Advanced Science, 2022).
≈ marks a conversion by molar mass, not a printed value. Where two headings read alike, the source gives them in different places.

What was measured:
C. albicans = test: MIC assay (in vitro antifungal assay); assay type: cell-based, Candida albicans; settings: for MIC: Candida albicans
Protocol: (§1) In vitro antifungal assays. The MIC assays for C. albicans (K1, SC5314, Gu5, ATCC90028, R01, R02, R03 and R04 strains) and C. neoformans (H99, MYA737 and JEC21 strains) were conducted according to a previously described protocol. The cultured fungal cells were collected at 2.5 × 10^3 CFU/mL in RPMI 1640 medium to give the working suspension. Two- […]
(§2) Then 50 µL of the cell suspension was added to each well. Wells containing cells in RPMI without any polymer or antifungal drug were used as drug-free controls, and wells containing RPMI medium only were used as cell-free controls. The plate was gently stirred for 10 seconds and then incubated at 30 °C. After C. albicans and C. neoformans cells were incubated for 24 h and 48 h, respectively, fungal cell growth was checked visually. […]

C. albicans SC5314 = test: Biofilm-induced fungal keratitis model; assay type: in vivo, mouse (male BALB/c); settings: 10 μL every 5 min for 1 h, then every 30 min for 7 h, versus saline, n = 10
Protocol: Medicine (Accreditation number of the laboratory: SHDSYY-2021-1729). The experiment […]
method. […] AmpB was
(2.5% DMSO in final solution).
The organs (kidney, liver, and
14th day for histological analysis and blood biochemistry analysis.
30 min during the next 7 h.
C. albicans biofilm formation on contact lenses. The contact lenses (Biomedic ®, Cooper […]
Then the discs were transferred to a […]
and incubated at rt with shaking at 100 rpm. After 6 hours of incubation, the suspension was […]
addition of 150 μL fresh RPMI medium into each well. […]
All mice were killed and the eyeballs of each mouse were collected immediately 30 min after the administration of the last eye drop. Ten eyeballs from each group were homogenized for quantitative analysis of fungal counts with the number of CFUs expressed as mean log (CFU per eye), and the remaining four eyeballs were collected for histological analysis. […]
After incubation for 24 h at 30 °C, the colonies were counted and the number of CFUs was […]
expressed as mean log 10 (CFU per eye). […]
Statistical Analysis. […] Significance between two groups was determined by two-tailed t-test. […] All results were expressed as mean values ± s.d. n = 3 for each in vitro statistical analysis. n = 8 or 10 for each in vivo statistical analysis. […]

ICR mice = test: In vivo acute toxicity, single IV injection
Protocol: In vivo acute toxicity. All animal procedures were performed in accordance with the
Guidelines for Care and Use of Laboratory Animals of the Shanghai Tenth People’s Hospital
(License number: SYXK( 沪)-2021-0012), and experiments were approved by the Animal
Ethics Committee of the Shanghai Tenth People’s Hospital, Tongji University School of
was performed on 6-weeks old female ICR mice (n = 10) using the previously reported
prepared in DMSO and further diluted into sterile saline to a final concentration of 0.3 mg/mL
and 3 mg/kg, respectively, and mice injected with saline were used as controls. After a single
injection, all survival mice were weighed daily for 14 days. The organs (kidney, liver, and
spleen) (n = 2) and blood of mice treated by PDAP 20 or saline (n = 8) were collected on the

[1] = tested on: C. albicans and C. neoformans; test: MIC/MFC, summary over all fungal strains; assay type: cell-based, Candida albicans, Cryptococcus neoformans
Protocol: as §1
as §2, with “plate to give 50 µL compound solution in each well. Then” for “Then”, “visually. The MIC values were identified as the lowest concentration” for “visually.”
C. albicans . The MFC assay for Candida and Cryptococcus was conducted after the MIC test.
An aliquot of 3 µL premixed suspension from each well was plated on the yeast extract-peptone-dextrose (YPD) agar. The plates were incubated at 30 °C for 24 h and 48 h, respectively, for C. albicans cells and C. neoformans cells. Then the plate was inspected visually for colony formation. […]

## C[C@@H]1[C@H](O)[C@@H](C)/C=C/C=C/C=C/C=C/C=C/C=C/C=C/[C@H](O[C@@H]2O[C@H](C)[C@@H](O)[C@H](N)[C@@H]2O)C[C@@H]2O[C@](O)(C[C@@H](O)C[C@@H](O)[C@H](O)CC[C@@H](O)C[C@@H](O)CC(=O)O[C@H]1C)C[C@H](O)[C@H]2C(=O)O [AmpB, amphotericin B]
C. albicans; 24 h, read-out: MIC C. albicans R01
  MIC: 1.2 µg/mL (≈ 1.3 µM)
C. albicans; 24 h, read-out: MIC C. albicans R04
  MIC: 1.6 µg/mL (≈ 1.73 µM)
C. albicans; ATCC90028, 24 h, read-out: MIC C. albicans ATCC90028
  MIC: 1.6 µg/mL (≈ 1.73 µM)
C. albicans; SC5314, 24 h, read-out: MIC C. albicans SC5314
  MIC: 1.6 µg/mL (≈ 1.73 µM)
C. albicans SC5314; AmpB 1 mg mL^−1 eye drops
  Reduction of colonies, log CFU per eye: 1.8 log CFU per eye
ICR mice; single IV dose of 3 mg kg^−1, ICR mice, n = 10
  Mice died within 48 h: 90%
[1]
  MIC against all strains of C. albicans and C. neoformans (range): 1.2 to 3.1 µg/mL

## poly(DL‐diaminopropionic acid) [PDAP20]
C. albicans; 1.0 × 10^8 CFU mL^−1, fungal species not stated at the place
  MIC at high fungal cell concentration (TEM conditions): 50 µg/mL
C. albicans; 3.0 × 10^6 CFU mL^−1, fungal species not stated at the place
  MIC at high fungal cell concentration (other mechanism experiments): 12.5 µg/mL
C. albicans; K+ up to 20 × 10^−3 M, C. albicans K1
  Effect of increasing K+ on antifungal activity: didn't affect
C. albicans; Na+ 103 mM, K+ 5.4 mM
  MIC C. albicans K1, standard MIC test in RPMI 1640: 0.8 µg/mL
C. albicans; Na+ 103 mM, K+ 10 mM
  MIC C. albicans K1, K+ ↑: 0.8 µg/mL
C. albicans; Na+ 103 mM, K+ 20 mM
  MIC C. albicans K1, K+ ↑: 0.8 µg/mL
C. albicans; Na+ 150 mM, K+ 5.4 mM
  MIC C. albicans K1, physiological salt concentration: 1.6 μg/mL
C. albicans; Na+ 200 mM, K+ 5.4 mM
  MIC C. albicans K1, Na+ ↑: 3.1 µg/mL
C. albicans; Na+ 300 mM, K+ 5.4 mM
  MIC C. albicans K1, Na+ ↑: 6.3 µg/mL
C. albicans; Na+ 300 mM, K+ 20 mM
  MIC C. albicans K1, Na+ ↑, K+ ↑: 6.3 µg/mL
C. albicans; Na+ from 150 × 10^−3 to 300 × 10^−3 M
  MIC C. albicans K1 on increase of Na+ (range): 1.6 to 6.3 µg/mL
C. albicans SC5314; PDAP20 15 mg mL^−1 eye drops
  Reduction of colonies, log CFU per eye: 1.2 log CFU per eye
ICR mice; single IV dose of 100 mg kg^−1, ICR mice, n = 10, 14 days
  Survival after IV injection: all mice survived
ICR mice; single IV dose of 100 mg kg^−1, daily for 14 days, n = 10
  Body weight: normal body weight compared to the saline group
ICR mice; single IV dose of 100 mg kg^−1, day 14, n = 2
  H&E histology of kidney, liver and spleen: no obvious toxicity on major organs
ICR mice; single IV dose of 100 mg kg^−1, day 14, n = 8
  Blood biochemistry (K+, Na+, ALT, AST, BUN, CREA): did not cause significant changes in blood biochemical indicators
[1]
  MIC against all strains of C. albicans and C. neoformans (range): 0.1 to 0.8 µg/mL
